Among the data in patent publication US12486253B2, “Therapeutics for the degradation of mutant BRAF” (C4 THERAPEUTICS, INC., priority 2021, dated 2025) are DC50 and Emax values, retold here.

By DC50 is commonly meant the midpoint of the concentration-degradation curve. Lower therefore signals degradation at low concentration. One may read the Emax as the greatest response seen or fitted, relative to the assay's reference.

The structures appear in SMILES notation. Like-named read-outs stand apart in the source and are kept apart here.

For the test, the target named is BRAF V600E (Homo sapiens, UniProt P15056, V600E). In words: HiBiT cellular BRAF^V600E degradation assay. The format is cell-based. The conditions noted are these: for DC50: concentration at which 50% of total cellular BRAF^V600E is degraded; for Emax: read-out: HiBit 24 h Emax.
Sequence of BRAF V600E (P15056 whole entry V600E): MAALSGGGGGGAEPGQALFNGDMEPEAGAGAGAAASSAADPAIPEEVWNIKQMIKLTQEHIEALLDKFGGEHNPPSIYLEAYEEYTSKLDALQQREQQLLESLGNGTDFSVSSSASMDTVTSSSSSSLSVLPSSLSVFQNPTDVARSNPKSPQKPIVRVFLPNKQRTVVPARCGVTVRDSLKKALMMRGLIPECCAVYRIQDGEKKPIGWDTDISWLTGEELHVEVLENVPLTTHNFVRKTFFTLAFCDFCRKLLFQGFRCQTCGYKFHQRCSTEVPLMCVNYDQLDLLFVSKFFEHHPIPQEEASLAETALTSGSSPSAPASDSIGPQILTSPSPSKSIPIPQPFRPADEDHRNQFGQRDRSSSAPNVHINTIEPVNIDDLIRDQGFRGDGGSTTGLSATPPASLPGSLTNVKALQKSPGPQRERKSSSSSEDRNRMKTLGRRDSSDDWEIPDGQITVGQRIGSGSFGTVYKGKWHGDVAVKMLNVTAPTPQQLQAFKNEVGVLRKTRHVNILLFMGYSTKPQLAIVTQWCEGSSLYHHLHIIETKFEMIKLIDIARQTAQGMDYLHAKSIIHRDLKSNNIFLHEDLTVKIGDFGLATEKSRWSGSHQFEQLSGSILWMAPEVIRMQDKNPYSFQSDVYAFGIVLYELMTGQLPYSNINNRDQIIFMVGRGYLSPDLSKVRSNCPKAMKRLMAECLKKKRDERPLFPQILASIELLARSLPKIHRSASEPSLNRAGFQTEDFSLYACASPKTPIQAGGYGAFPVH
[1] abbreviates: A375.10 cells, 24 h, residual protein remaining in the cell.

`CCN(C)S(=O)(=O)Nc1ccc(F)c(Oc2ccc3ncn(CCC4CCN(C(=O)CN5CCC(c6ccc(NC7CCC(=O)NC7=O)c(F)c6)CC5)CC4)c(=O)c3c2)c1C#N` (stereo not drawn) [Example 3, 6-[2-cyano-3-[[ethyl(methyl)sulfamoyl]amino]-6-fluorophenoxy]-3-[2-[1-[2-[4-[4-[(2,6-dioxopiperidin-3-yl)amino]-3-fluorophenyl]piperidin-1-yl]acetyl]piperidin-4-yl]ethyl]-4-oxoquinazoline]: the Emax was 14.7%. Also, it took 35.9 nM to reach half-maximal degradation (A375.10 cells, 24 h) (DC50).
With `CCN(C)S(=O)(=O)Nc1ccc(F)c(Oc2ccc3ncn(CCCC4CCN(C(=O)CN5CCC(c6ccc(NC7CCC(=O)NC7=O)cc6)CC5)CC4)c(=O)c3c2)c1C#N` (stereo not drawn) [Example 4, 6-[2-cyano-3-[[ethyl(methyl)sulfamoyl]amino]-6-fluorophenoxy]-3-[3-[1-[2-[4-[4-[(2,6-dioxopiperidin-3-yl)amino]phenyl]piperidin-1-yl]acetyl]piperidin-4-yl]propyl]-4-oxoquinazoline], for the setting “A375.10 cells, 24 h”, it took 28.6 nM to reach half-maximal degradation (DC50). Besides, the maximal effect (Emax) under setting [1] was found to be 10.8%.
`CCN(C)S(=O)(=O)Nc1ccc(F)c(Oc2ccc3ncn(CCCC4CCN(C(=O)CN5CCC(c6ccc(C7CCC(=O)NC7=O)cc6F)CC5)CC4)c(=O)c3c2)c1C#N` (stereo not drawn) [Example 5, 6-[2-cyano-3-[[ethyl(methyl)sulfamoyl]amino]-6-fluorophenoxy]-3-[3-[1-[2-[4-[4-(2,6-dioxopiperidin-3-yl)-2-fluorophenyl]piperidin-1-yl]acetyl]piperidin-4-yl]propyl]-4-oxoquinazoline] came in with a 50% degradation concentration (DC50) (A375.10 cells, 24 h) of 49.3 nM. The Emax under setting [1] stood at 13.1%.
As to `CCN(C)S(=O)(=O)Nc1ccc(F)c(Oc2ccc3ncn(CCCC4CCN(C(=O)CN5CCC(c6ccc(NC7CCC(=O)NC7=O)cc6F)CC5)CC4)c(=O)c3c2)c1C#N` (stereo not drawn) [Example 6, 6-[2-cyano-3-[[ethyl(methyl)sulfamoyl]amino]-6-fluorophenoxy]-3-[3-[1-[2-[4-[4-[(2,6-dioxopiperidin-3-yl)amino]-2-fluorophenyl]piperidin-1-yl]acetyl]piperidin-4-yl]propyl]-4-oxoquinazoline], for the setting “A375.10 cells, 24 h”, the 50% degradation concentration (DC50) is 22.7 nM. Further, under setting [1], the Emax was 11.5%.
For `CCN(C)S(=O)(=O)Nc1ccc(F)c(Oc2ccc3ncn(CCCC4CCN(CC(=O)N5CCC(c6ccc(NC7CCC(=O)NC7=O)cc6)CC5)CC4)c(=O)c3c2)c1C#N` (stereo not drawn) [Example 7, 6-[2-cyano-3-[[ethyl(methyl)sulfamoyl]amino]-6-fluorophenoxy]-3-[3-[1-[2-[4-[4-[(2,6-dioxopiperidin-3-yl)amino]phenyl]piperidin-1-yl]-2-oxoethyl]piperidin-4-yl]propyl]-4-oxoquinazoline], in that order: 42.2 nM and 15.2%.
Taken in the same sequence, the figures for `CCN(C)S(=O)(=O)Nc1ccc(F)c(Oc2ccc3ncn(CCN4CCN(C(=O)CN5CCC(c6ccc(NC7CCC(=O)NC7=O)cc6F)CC5)CC4)c(=O)c3c2)c1C#N` (stereo not drawn) [Example 8, 6-[2-cyano-3-[[ethyl(methyl)sulfamoyl]amino]-6-fluorophenoxy]-3-[2-[4-[2-[4-[4-[(2,6-dioxopiperidin-3-yl)amino]-2-fluorophenyl]piperidin-1-yl]acetyl]piperazin-1-yl]ethyl]-4-oxoquinazoline] were 27.9 nM and 10%.
`CCN(C)S(=O)(=O)Nc1ccc(F)c(Oc2ccc3ncn(CCN4CCN(C(=O)CN5CCC(c6ccc(NC7CCC(=O)NC7=O)cc6)CC5)CC4)c(=O)c3c2)c1C#N` (stereo not drawn) [Example 9, 6-[2-cyano-3-[[ethyl(methyl)sulfamoyl]amino]-6-fluorophenoxy]-3-[2-[4-[2-[4-[4-[(2,6-dioxopiperidin-3-yl)amino]phenyl]piperidin-1-yl]acetyl]piperazin-1-yl]ethyl]-4-oxoquinazoline] returned a DC50 (A375.10 cells, 24 h) of 41.9 nM. For the same compound, under setting [1], the Emax came out at 9.87%.
For `CCN(C)S(=O)(=O)Nc1ccc(F)c(Oc2ccc3ncn(C(C)CCC4CCN(C(=O)CN5CCC(c6ccc(NC7CCC(=O)NC7=O)cc6F)CC5)CC4)c(=O)c3c2)c1C#N` (stereo not drawn) [Example 10, 6-[2-cyano-3-[[ethyl(methyl)sulfamoyl]amino]-6-fluorophenoxy]-3-[4-[1-[2-[4-[4-[(2,6-dioxopiperidin-3-yl)amino]-2-fluorophenyl]piperidin-1-yl]acetyl]piperidin-4-yl]butan-2-yl]-4-oxoquinazoline], in that order: 41.9 nM and 12.6%.
Taken in the same sequence, the figures for `CCN(C)S(=O)(=O)Nc1ccc(F)c(Oc2ccc3ncn(CCC(C)C4CCN(C(=O)CN5CCC(c6ccc(NC7CCC(=O)NC7=O)cc6F)CC5)CC4)c(=O)c3c2)c1C#N` (stereo not drawn) [Example 11, 6-[2-cyano-3-[[ethyl(methyl)sulfamoyl]amino]-6-fluorophenoxy]-3-[3-[1-[2-[4-[4-[(2,6-dioxopiperidin-3-yl)amino]-2-fluorophenyl]piperidin-1-yl]acetyl]piperidin-4-yl]butyl]-4-oxoquinazoline] were 10.1 nM and 9.52%.
The compound `CCN(C)S(=O)(=O)Nc1ccc(F)c(Oc2ccc3ncn(CCCC4(C)CCN(C(=O)CN5CCC(c6ccc(NC7CCC(=O)NC7=O)cc6F)CC5)CC4)c(=O)c3c2)c1C#N` (stereo not drawn) [Example 12, 6-[2-cyano-3-[[ethyl(methyl)sulfamoyl]amino]-6-fluorophenoxy]-3-[3-[1-[2-[4-[4-[(2,6-dioxopiperidin-3-yl)amino]-2-fluorophenyl]piperidin-1-yl]acetyl]-4-methylpiperidin-4-yl]propyl]-4-oxoquinazoline] gave a DC50 (A375.10 cells, 24 h) of 29.2 nM. Besides, the Emax under setting [1] is 8.33%.
Under “A375.10 cells, 24 h”, `CCN(C)S(=O)(=O)Nc1ccc(F)c(Oc2ccc3ncn(CCC4(F)CCN(C(=O)CN5CCC(c6ccc(NC7CCC(=O)NC7=O)cc6F)CC5)CC4)c(=O)c3c2)c1C#N` (stereo not drawn) [Example 13, 6-[2-cyano-3-[[ethyl(methyl)sulfamoyl]amino]-6-fluorophenoxy]-3-[2-[1-[2-[4-[4-[(2,6-dioxopiperidin-3-yl)amino]-2-fluorophenyl]piperidin-1-yl]acetyl]-4-fluoropiperidin-4-yl]ethyl]-4-oxoquinazoline] displayed a DC50 of 26.2 nM. Under setting [1], the maximum response (Emax) turned out to be 8.27%.
Regarding `CCN(C)S(=O)(=O)Nc1ccc(F)c(Oc2ccc3ncn(CC(C)CC4CCN(C(=O)CN5CCC(c6ccc(NC7CCC(=O)NC7=O)cc6F)CC5)CC4)c(=O)c3c2)c1C#N` (stereo not drawn) [Example 14, 6-[2-cyano-3-[[ethyl(methyl)sulfamoyl]amino]-6-fluorophenoxy]-3-[3-[1-[2-[4-[4-[(2,6-dioxopiperidin-3-yl)amino]-2-fluorophenyl]piperidin-1-yl]acetyl]piperidin-4-yl]-2-methylpropyl]-4-oxoquinazoline], the Emax was found to be 8.11%. This compound also returned a 50% degradation concentration (DC50) (A375.10 cells, 24 h) of 12.5 nM.
With `CCN(C)S(=O)(=O)Nc1ccc(F)c(Oc2ccc3ncn(CCCC4(F)CCN(C(=O)CN5CCC(c6ccc(NC7CCC(=O)NC7=O)cc6F)CC5)CC4)c(=O)c3c2)c1C#N` (stereo not drawn) [Example 15, 6-[2-cyano-3-[[ethyl(methyl)sulfamoyl]amino]-6-fluorophenoxy]-3-[3-[1-[2-[4-[4-[(2,6-dioxopiperidin-3-yl)amino]-2-fluorophenyl]piperidin-1-yl]acetyl]-4-fluoropiperidin-4-yl]propyl]-4-oxoquinazoline], half-maximal degradation (A375.10 cells, 24 h) (DC50) was put at 11.1 nM. Also, the Emax under setting [1] amounted to 7.29%.
In the case of `CCN(C)S(=O)(=O)Nc1ccc(F)c(Oc2ccc3ncn(-c4cnn(C5CCN(C(=O)CN6CCC(c7ccc(NC8CCC(=O)NC8=O)cc7F)CC6)CC5)c4)c(=O)c3c2)c1C#N` (stereo not drawn) [Example 16, 6-[2-cyano-3-[[ethyl(methyl)sulfamoyl]amino]-6-fluorophenoxy]-3-[1-[1-[2-[4-[4-[(2,6-dioxopiperidin-3-yl)amino]-2-fluorophenyl]piperidin-1-yl]acetyl]piperidin-4-yl]pyrazol-4-yl]-4-oxoquinazoline], the DC50 (A375.10 cells, 24 h) came to 20.5 nM. In addition, the maximal effect (Emax) under setting [1] was 15.5%.
For the compound `CCN(C)S(=O)(=O)Nc1ccc(F)c(Oc2ccc3ncn(-c4cnn(C5CCN(C(=O)CN6CCC(c7ccc(C8CCC(=O)NC8=O)cc7F)CC6)CC5)c4)c(=O)c3c2)c1C#N` (stereo not drawn) [Example 17, 6-[2-cyano-3-[[ethyl(methyl)sulfamoyl]amino]-6-fluorophenoxy]-3-[1-[1-[2-[4-[4-(2,6-dioxopiperidin-3-yl)-2-fluorophenyl]piperidin-1-yl]acetyl]piperidin-4-yl]pyrazol-4-yl]-4-oxoquinazoline], the DC50 (A375.10 cells, 24 h) was found to be 44 nM. In addition, the Emax under setting [1] is 20.7%.
The compound `CCN(C)S(=O)(=O)Nc1ccc(F)c(Oc2ccc3ncn(-c4cnn(C5CCN(C(=O)CN6CCC(c7ccc(NC8CCC(=O)NC8=O)cc7)CC6)CC5)c4)c(=O)c3c2)c1C#N` (stereo not drawn) [Example 18, 6-[2-cyano-3-[[ethyl(methyl)sulfamoyl]amino]-6-fluorophenoxy]-3-[1-[1-[2-[4-[4-[(2,6-dioxopiperidin-3-yl)amino]phenyl]piperidin-1-yl]acetyl]piperidin-4-yl]pyrazol-4-yl]-4-oxoquinazoline] returned a DC50 (A375.10 cells, 24 h) of 30.7 nM. Besides, the Emax under setting [1] came out at 18.5%.
In the case of `CCN(C)S(=O)(=O)Nc1ccc(F)c(Oc2ccc3ncn(-c4cnn(C5CCN(C(=O)CN6CCC(c7ccc(NC8CCC(=O)NC8=O)c(F)c7)CC6)CC5)c4)c(=O)c3c2)c1C#N` (stereo not drawn) [Example 19, 6-[2-cyano-3-[[ethyl(methyl)sulfamoyl]amino]-6-fluorophenoxy]-3-[1-[1-[2-[4-[4-[(2,6-dioxopiperidin-3-yl)amino]-3-fluorophenyl]piperidin-1-yl]acetyl]piperidin-4-yl]pyrazol-4-yl]-4-oxoquinazoline], the Emax came to 20.6%. The same compound registered a DC50 (A375.10 cells, 24 h) of 42.3 nM.
For the compound `CCN(C)S(=O)(=O)Nc1ccc(F)c(Oc2ccc3ncn(-c4cnn(C5CCN(C(=O)CN6CCC(c7c(F)cc(NC8CCC(=O)NC8=O)cc7F)CC6)CC5)c4)c(=O)c3c2)c1C#N` (stereo not drawn) [Example 20, 6-[2-cyano-3-[[ethyl(methyl)sulfamoyl]amino]-6-fluorophenoxy]-3-[1-[1-[2-[4-[4-[(2,6-dioxopiperidin-3-yl)amino]-2,6-difluorophenyl]piperidin-1-yl]acetyl]piperidin-4-yl]pyrazol-4-yl]-4-oxoquinazoline], where the note is “A375.10 cells, 24 h”, the DC50 is 14.4 nM. The Emax under setting [1] came to 17.7%.
